# pEC50: −log10 of the molar value.
# Tests used:
# [1] = target: T1, zebrafish α9α10 (1:2) nAChR (Danio rerio, UniProt A0A8M9PIT7+Q1LY90); assay: two-electrode voltage clamp, peak inward current, Hill fit; format: cell-based
# T1 sequence (A0A8M9PIT7 20-580): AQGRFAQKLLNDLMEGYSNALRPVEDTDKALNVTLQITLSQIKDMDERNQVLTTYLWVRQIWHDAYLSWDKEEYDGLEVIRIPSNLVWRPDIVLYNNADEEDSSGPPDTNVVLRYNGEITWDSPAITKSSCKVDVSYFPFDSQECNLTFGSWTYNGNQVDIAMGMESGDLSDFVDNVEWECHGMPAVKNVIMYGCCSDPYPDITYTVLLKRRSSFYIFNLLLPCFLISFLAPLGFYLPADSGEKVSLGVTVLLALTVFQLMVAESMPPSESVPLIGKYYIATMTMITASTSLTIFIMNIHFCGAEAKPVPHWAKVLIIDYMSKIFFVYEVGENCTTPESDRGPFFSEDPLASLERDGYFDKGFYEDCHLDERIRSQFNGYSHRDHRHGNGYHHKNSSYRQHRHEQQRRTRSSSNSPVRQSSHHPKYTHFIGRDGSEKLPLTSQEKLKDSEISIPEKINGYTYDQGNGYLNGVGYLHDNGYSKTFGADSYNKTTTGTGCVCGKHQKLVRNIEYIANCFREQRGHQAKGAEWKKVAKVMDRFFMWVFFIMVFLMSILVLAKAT
# T1 sequence (Q1LY90 26-527): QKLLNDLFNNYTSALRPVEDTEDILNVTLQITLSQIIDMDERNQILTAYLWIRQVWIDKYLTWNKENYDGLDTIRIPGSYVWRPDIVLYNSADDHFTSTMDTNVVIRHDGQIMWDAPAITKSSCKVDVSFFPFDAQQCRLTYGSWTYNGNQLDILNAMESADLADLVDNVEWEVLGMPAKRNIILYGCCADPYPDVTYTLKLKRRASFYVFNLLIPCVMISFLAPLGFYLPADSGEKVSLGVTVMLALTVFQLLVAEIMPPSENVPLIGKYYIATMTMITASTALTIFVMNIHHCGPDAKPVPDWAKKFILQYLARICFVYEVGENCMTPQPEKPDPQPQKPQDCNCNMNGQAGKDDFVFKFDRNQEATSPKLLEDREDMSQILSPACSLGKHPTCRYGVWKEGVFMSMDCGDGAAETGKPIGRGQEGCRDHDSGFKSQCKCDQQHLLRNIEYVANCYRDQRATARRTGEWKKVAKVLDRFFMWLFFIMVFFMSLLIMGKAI
# [2] = target: T2, zebrafish α9 nAChR (homomeric) (Danio rerio, UniProt A0A8M9PIT7); assay: as above; format: cell-based
# T2 sequence (A0A8M9PIT7 20-580): T1 sequence (A0A8M9PIT7 20-580)
smiles,measurement,setting,value
"CC(=O)OCC[N+](C)(C)C [ACh, acetylcholine]",pEC50,[1],3.36
same,pEC50,[2],4.93
